Ki, % of control and IC50 data for two molecules are collected here from ChEMBL document CHEMBL5212743, “Selectivity Literature for EUbOPEN Chemogenomics Library wave 3” (2023).

Bounds are passed on as bounds.

The target of assay [1] is T1, Alpha-2C adrenergic receptor (Homo sapiens, UniProt P18825).
T1 sequence (P18825 whole entry): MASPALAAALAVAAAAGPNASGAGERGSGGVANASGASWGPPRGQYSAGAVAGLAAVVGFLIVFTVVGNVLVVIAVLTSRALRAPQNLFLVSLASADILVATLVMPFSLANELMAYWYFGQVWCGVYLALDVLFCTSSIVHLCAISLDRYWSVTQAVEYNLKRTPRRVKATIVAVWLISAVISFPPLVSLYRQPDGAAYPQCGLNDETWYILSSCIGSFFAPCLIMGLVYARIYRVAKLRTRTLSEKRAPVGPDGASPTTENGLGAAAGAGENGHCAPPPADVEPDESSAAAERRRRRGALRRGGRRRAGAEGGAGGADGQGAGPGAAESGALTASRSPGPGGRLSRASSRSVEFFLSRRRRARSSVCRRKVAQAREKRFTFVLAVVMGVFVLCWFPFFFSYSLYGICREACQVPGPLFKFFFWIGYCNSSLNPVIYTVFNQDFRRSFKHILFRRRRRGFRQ
Kind of assay: Selectivity interaction (GPCR panel (PDSP screen)) EUB0000316b ADRA2C.

For assay [2], the target named is Cyclin-dependent kinase 4 (Homo sapiens) (UniProt P11802). As to the kind of experiment: Selectivity interaction (KinomeScan (DiscoverX)) EUB0000316b CDK4. The note with it: at 1 µM.
Assay [3] concerns the target Mitogen-activated protein kinase 8 (Homo sapiens, UniProt P45983). Kind of assay: Selectivity interaction (KinomeScan (DiscoverX)) EUB0000316b MAPK8. The note with it: at 1 µM.
Assay [4] deals with Serine/threonine-protein kinase WNK2 (Homo sapiens) (UniProt Q9Y3S1). As to the kind of experiment: Selectivity interaction (KinomeScan (DiscoverX)) EUB0000316b WNK2. The note with it: at 1 µM.
Assay [5] addresses T2, Gamma-aminobutyric acid receptor subunit alpha-1 (Homo sapiens, UniProt P14867).
T2 sequence (P14867 whole entry): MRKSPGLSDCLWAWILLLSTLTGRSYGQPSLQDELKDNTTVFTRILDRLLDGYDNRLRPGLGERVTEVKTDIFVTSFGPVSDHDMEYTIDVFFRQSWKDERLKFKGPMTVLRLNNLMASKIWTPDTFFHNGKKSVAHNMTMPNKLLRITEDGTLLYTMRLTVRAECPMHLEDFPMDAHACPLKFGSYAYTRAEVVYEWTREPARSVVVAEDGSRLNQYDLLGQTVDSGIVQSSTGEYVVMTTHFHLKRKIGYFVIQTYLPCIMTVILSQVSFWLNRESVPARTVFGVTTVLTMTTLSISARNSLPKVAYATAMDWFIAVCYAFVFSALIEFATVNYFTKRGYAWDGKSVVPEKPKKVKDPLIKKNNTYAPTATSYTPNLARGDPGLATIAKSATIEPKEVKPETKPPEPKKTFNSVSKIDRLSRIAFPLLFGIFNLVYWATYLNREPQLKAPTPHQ
As to the kind of experiment: Selectivity interaction (GPCR panel (PDSP screen)) EUB0000316b GABRA1.

The target in assay [6] is Mitogen-activated protein kinase kinase kinase 14 (Homo sapiens) (UniProt Q99558). Kind of assay: Selectivity interaction (KinomeScan (DiscoverX)) EUB0000316b MAP3K14. The note with it: at 1 µM.
Assay [7] deals with T3, Receptor-interacting serine/threonine-protein kinase 4 (Homo sapiens) (UniProt P57078).
T3 sequence (whole entry): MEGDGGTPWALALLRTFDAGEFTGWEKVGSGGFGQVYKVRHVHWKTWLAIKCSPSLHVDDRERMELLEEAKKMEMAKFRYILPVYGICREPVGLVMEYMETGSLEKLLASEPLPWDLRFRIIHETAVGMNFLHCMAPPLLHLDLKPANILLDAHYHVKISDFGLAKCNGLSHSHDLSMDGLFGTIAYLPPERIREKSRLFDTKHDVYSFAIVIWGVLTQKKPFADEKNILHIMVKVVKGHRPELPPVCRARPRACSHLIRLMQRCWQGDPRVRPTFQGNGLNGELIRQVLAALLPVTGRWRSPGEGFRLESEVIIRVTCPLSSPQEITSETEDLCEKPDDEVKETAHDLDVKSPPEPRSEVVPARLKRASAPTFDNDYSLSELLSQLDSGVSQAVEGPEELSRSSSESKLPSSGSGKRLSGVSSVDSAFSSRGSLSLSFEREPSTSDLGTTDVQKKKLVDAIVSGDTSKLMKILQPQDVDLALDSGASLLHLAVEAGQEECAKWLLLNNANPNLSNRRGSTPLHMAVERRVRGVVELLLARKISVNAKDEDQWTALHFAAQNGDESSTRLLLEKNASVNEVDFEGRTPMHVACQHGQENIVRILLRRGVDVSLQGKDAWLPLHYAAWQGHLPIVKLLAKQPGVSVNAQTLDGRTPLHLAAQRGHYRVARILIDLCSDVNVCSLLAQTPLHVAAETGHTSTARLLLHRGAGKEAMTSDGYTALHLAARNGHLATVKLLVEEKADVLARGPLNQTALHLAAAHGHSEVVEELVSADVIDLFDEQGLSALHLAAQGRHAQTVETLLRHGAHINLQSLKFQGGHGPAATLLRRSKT
As to the kind of experiment: Selectivity interaction (KinomeScan (DiscoverX)) EUB0000316b RIPK4. The note with it: at 1 µM.

The next assay addresses T4, Adenosine receptor A3 (Homo sapiens, UniProt P0DMS8).
T4 sequence (P0DMS8 whole entry): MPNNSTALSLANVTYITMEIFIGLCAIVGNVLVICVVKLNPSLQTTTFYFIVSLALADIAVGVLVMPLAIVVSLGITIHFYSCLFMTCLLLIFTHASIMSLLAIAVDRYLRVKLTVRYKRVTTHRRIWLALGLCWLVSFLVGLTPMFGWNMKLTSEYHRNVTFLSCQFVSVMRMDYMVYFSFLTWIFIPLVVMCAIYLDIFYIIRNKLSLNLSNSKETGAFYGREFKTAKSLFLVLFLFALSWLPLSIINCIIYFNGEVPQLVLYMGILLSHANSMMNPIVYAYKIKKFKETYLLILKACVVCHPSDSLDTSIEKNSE
Kind of assay: Selectivity interaction (Radioligand binding assay (MDS Pharma Service)) EUB0000296b ADORA3.

The target in assay [8] is T1, Alpha-2C adrenergic receptor. As to the kind of experiment: Selectivity interaction (Radioligand binding assay (MDS Pharma Service)) EUB0000296b ADRA2C.
Assay [9] addresses Serine/threonine-protein kinase STK11 (Homo sapiens) (UniProt Q15831). As to the kind of experiment: Selectivity interaction (KinomeScan (DiscoverX)) EUB0000296b STK11. The note with it: at 1 µM.
Assay [10] concerns the target Polyunsaturated fatty acid 5-lipoxygenase (Homo sapiens, UniProt P09917). As to the kind of experiment: Selectivity interaction (MSD Pharma/Taiwan screen (enzymes and receptors) ) EUB0000296b ALOX5.
Assay [11] has as its target Synaptic vesicular amine transporter (Homo sapiens, UniProt Q05940). As to the kind of experiment: Selectivity interaction (Radioligand binding assay (MDS Pharma Service)) EUB0000296b SLC18A2.
For assay [12], the target named is Dual specificity tyrosine-phosphorylation-regulated kinase 1B (Homo sapiens, UniProt Q9Y463). As to the kind of experiment: Selectivity interaction (KinomeScan (DiscoverX)) EUB0000296b DYRK1B. The conditions noted are these: at 1 µM.
In assay [13] the target is Mitogen-activated protein kinase 3 (Homo sapiens, UniProt P27361). As to the kind of experiment: Selectivity interaction (MSD Pharma/Taiwan screen (enzymes and receptors) ) EUB0000296b MAPK3.
The target of assay [14] is Mitogen-activated protein kinase 14 (Homo sapiens, UniProt Q16539). Kind of assay: Selectivity interaction (MSD Pharma/Taiwan screen (enzymes and receptors) ) EUB0000296b MAPK14.
For assay [15], the target named is Sodium-dependent dopamine transporter (Homo sapiens, UniProt Q01959). As to the kind of experiment: Selectivity interaction (Radioligand binding assay (MDS Pharma Service)) EUB0000296b SLC6A3.
In assay [16] the target is eIF-2-alpha kinase GCN2 (Homo sapiens) (UniProt Q9P2K8). Kind of assay: Selectivity interaction (KinomeScan (DiscoverX)) EUB0000296b EIF2AK4. The note with it: at 1 µM.
Assay [17] concerns the target Phosphatidylinositol 4-phosphate 3-kinase C2 domain-containing subunit beta (Homo sapiens) (UniProt O00750). As to the kind of experiment: Selectivity interaction (KinomeScan (DiscoverX)) EUB0000296b PIK3C2B. The note with it: at 1 µM.
The target of assay [18] is T2, Gamma-aminobutyric acid receptor subunit alpha-1. Kind of assay: Selectivity interaction (GPCR panel (PDSP screen)) EUB0000296b GABRA1.
For assay [19], the target named is Epidermal growth factor receptor (Homo sapiens, UniProt P00533). As to the kind of experiment: Selectivity interaction (MSD Pharma/Taiwan screen (enzymes and receptors) ) EUB0000296b EGFR.
The target of assay [20] is Protein kinase C epsilon type (Homo sapiens) (UniProt Q02156). As to the kind of experiment: Selectivity interaction (KinomeScan (DiscoverX)) EUB0000296b PRKCE. The note with it: at 1 µM.

Sequence of Mitogen-activated protein kinase 3 (P27361 whole entry): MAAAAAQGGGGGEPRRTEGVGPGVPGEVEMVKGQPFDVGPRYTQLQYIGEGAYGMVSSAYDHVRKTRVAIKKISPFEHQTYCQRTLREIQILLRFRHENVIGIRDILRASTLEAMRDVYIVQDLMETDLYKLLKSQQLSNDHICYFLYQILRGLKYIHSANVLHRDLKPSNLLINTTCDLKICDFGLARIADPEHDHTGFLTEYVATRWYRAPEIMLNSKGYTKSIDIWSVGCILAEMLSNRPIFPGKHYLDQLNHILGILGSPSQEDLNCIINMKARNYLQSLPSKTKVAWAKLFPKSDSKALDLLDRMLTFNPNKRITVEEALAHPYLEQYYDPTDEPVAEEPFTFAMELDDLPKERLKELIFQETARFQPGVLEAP
Sequence of Mitogen-activated protein kinase 14 (Q16539 whole entry): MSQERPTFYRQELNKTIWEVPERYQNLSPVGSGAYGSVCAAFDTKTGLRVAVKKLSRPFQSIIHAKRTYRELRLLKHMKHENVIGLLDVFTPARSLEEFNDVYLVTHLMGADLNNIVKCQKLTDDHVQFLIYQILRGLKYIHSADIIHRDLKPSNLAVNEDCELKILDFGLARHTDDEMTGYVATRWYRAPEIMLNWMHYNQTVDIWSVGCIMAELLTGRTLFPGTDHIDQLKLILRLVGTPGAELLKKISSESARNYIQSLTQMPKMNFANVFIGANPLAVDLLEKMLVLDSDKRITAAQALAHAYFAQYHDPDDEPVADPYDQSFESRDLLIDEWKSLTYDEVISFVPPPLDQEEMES
Sequence of Mitogen-activated protein kinase 8 (P45983 whole entry): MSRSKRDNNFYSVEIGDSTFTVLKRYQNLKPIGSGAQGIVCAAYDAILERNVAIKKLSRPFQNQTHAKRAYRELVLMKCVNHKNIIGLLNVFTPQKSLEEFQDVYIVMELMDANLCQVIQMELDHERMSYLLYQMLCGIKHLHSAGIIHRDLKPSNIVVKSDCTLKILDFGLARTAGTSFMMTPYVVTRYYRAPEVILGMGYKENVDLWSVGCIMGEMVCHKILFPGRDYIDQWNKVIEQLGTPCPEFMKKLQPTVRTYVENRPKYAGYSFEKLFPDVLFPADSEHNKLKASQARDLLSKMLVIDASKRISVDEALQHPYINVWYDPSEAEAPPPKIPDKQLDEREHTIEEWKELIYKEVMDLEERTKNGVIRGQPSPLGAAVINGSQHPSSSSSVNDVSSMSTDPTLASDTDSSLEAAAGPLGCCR
Sequence of Serine/threonine-protein kinase STK11 (Homo sapiens) (Q15831 whole entry): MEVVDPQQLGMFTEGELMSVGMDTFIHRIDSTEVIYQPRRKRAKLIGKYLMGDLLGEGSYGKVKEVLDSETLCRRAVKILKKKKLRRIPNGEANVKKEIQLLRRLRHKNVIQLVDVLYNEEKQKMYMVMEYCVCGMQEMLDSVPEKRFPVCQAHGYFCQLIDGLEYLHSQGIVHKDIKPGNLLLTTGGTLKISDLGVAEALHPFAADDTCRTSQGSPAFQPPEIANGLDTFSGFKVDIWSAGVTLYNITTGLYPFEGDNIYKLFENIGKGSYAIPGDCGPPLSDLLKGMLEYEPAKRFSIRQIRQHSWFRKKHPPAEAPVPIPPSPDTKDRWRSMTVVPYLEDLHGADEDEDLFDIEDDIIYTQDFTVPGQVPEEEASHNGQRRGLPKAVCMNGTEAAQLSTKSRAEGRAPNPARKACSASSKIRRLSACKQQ
Sequence of Dual specificity tyrosine-phosphorylation-regulated kinase 1B (Q9Y463 whole entry, looked up): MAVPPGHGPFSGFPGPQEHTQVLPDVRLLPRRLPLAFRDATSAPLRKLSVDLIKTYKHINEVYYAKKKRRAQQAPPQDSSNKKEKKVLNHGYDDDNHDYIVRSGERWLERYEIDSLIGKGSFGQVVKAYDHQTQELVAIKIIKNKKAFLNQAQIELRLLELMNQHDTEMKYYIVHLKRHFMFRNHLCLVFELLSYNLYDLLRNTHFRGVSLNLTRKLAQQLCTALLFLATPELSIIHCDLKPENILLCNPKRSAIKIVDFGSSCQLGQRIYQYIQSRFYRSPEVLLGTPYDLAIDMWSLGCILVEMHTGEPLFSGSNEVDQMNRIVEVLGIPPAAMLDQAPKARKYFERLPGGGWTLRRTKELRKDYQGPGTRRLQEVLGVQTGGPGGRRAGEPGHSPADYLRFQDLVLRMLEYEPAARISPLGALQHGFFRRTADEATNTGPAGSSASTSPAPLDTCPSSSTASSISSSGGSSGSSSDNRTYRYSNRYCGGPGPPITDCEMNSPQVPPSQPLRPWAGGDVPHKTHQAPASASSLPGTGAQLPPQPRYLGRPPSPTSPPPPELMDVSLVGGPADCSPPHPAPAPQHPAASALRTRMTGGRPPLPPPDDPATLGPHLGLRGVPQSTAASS
Sequence of Serine/threonine-protein kinase WNK2 (Homo sapiens) (Q9Y3S1 whole entry): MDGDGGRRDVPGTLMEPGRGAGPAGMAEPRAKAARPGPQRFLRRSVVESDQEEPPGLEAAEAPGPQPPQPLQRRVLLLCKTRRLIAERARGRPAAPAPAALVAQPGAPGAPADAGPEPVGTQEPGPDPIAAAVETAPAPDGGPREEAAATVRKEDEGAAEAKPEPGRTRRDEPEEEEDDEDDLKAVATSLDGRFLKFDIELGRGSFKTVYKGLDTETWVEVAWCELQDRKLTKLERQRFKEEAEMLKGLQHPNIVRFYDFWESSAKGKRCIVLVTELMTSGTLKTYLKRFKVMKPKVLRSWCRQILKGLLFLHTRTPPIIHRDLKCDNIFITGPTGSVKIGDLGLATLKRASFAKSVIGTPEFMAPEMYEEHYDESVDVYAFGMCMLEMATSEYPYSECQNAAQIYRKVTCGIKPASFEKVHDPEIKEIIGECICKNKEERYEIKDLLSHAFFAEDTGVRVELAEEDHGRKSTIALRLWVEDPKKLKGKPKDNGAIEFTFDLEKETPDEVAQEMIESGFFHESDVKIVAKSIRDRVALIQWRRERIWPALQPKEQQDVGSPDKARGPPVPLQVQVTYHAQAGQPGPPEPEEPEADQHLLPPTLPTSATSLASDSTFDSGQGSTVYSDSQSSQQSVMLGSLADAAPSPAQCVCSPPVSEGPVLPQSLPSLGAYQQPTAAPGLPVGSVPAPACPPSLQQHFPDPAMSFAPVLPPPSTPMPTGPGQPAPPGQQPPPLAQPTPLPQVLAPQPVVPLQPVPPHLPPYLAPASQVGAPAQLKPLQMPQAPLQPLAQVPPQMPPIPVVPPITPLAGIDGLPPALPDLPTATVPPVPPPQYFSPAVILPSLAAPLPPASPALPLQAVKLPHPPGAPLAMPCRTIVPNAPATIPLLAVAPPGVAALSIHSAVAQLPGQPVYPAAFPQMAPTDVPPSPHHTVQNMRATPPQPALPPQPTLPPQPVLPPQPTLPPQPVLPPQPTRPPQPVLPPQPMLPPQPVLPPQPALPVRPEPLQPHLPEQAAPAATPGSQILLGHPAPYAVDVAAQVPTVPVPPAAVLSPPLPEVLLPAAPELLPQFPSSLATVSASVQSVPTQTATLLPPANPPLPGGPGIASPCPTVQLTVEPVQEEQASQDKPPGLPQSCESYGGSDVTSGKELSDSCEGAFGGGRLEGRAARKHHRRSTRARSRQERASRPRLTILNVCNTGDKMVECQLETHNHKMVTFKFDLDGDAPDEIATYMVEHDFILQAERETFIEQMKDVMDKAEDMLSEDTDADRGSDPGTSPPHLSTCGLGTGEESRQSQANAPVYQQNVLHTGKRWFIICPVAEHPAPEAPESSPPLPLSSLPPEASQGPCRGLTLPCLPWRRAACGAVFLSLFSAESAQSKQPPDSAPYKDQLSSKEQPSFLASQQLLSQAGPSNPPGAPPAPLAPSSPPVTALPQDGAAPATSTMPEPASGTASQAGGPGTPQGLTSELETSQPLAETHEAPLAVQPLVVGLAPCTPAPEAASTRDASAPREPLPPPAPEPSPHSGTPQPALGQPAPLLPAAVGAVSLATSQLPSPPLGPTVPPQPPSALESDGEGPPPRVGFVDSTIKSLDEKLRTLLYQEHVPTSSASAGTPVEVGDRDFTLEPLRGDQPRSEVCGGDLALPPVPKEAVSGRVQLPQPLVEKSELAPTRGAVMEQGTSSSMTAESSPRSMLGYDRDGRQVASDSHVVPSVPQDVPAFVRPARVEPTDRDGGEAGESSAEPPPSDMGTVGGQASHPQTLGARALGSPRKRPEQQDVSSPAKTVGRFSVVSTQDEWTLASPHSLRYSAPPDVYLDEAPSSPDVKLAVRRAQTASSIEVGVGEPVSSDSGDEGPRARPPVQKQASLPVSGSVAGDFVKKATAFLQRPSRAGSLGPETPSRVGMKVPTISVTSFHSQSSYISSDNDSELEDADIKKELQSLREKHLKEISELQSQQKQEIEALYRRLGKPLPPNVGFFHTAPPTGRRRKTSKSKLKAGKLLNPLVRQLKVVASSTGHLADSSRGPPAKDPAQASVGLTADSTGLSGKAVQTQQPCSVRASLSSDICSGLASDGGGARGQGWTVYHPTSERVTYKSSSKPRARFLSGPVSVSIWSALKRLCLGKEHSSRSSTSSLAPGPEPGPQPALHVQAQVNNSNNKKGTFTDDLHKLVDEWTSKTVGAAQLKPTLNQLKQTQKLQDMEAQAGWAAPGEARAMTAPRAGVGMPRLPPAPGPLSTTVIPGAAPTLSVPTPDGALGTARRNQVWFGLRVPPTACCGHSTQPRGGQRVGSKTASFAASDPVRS
Sequence of Cyclin-dependent kinase 4 (Homo sapiens) (P11802 whole entry): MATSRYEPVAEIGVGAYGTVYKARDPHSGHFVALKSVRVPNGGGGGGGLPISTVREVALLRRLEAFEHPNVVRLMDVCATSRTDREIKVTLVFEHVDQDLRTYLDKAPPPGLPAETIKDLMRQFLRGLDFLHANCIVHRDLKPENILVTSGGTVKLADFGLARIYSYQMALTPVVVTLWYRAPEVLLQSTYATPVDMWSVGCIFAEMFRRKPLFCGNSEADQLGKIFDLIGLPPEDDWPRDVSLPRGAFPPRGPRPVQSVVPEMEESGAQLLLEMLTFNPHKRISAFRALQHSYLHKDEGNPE

`CC(=O)c1c(NS(C)(=O)=O)c2cc(-c3ccc(Cl)cc3)c(-c3ccc(Cl)cc3Cl)nc2n(C)c1=O` [MRL-CB1-NC]: the Ki in assay [1] was over 10000 nM; in [5] it was 1670 nM. Also, the % of control in assay [2] amounted to 63%; in assay [3], 63%; in assay [4], 62%; in assay [6], 63%; in [7], 61%.

On to `CC(=O)Nc1c(C(C)=O)c(=O)n(C)c2nc(-c3ccc(Cl)cc3Cl)c(-c3ccc(Cl)cc3)cc12` [NAPHTHYRIDINONE], for which the Ki was found to be 773 nM at Adenosine receptor A3; 1130 nM in assay [8]; 648 nM in [11]; 799 nM in assay [15]; 82 nM in assay [18]. In addition, the % of control was found to be 43% in assay [9]; 35% in assay [12]; 48% in assay [16]; 48% in [17]; 48% in assay [20]. The IC50 in assay [10] is 1340 nM; in [13], 8610 nM; in assay [14], 3680 nM; in assay [19], 3260 nM.
